Each structure is given as a SMILES string.

On to `CCCCCC(C)(C)S` [2-methylheptane-2-thiol], for which the flash point came out at 46.00 °C.
On to `Cc1ccc2ccccc2c1` [2-methylnaphthalene], for which the flash point came to 98.00 °C.
As for `CC(C#N)CCC#N` (stereo unspecified) [2-methylpentanedinitrile], the figure is 126.00 °C.
In turn, `Cc1ccccc1O` [2-methylphenol] yielded a flash point of 81.00 °C.
As for `C=C(C)CO` [2-methylprop-2-en-1-ol], the figure is 33.00 °C; as for `C=C(C)C#N` [2-methylprop-2-enenitrile], 13.00 °C; as for `CC(C)C=O` [2-methylpropanal], -40.00 °C.
To `CC(CO)CO` [2-methylpropane-1,3-diol] belongs 127.00 °C; to `CC(C)C(=O)O.CC(C)C(O)C(C)(C)CO` (stereo unspecified) [2-methylpropanoic acid;2,2,4-trimethylpentane-1,3-diol], 120.00 °C; to `CC(C)C(=O)O` [2-methylpropanoic acid], 56.00 °C.
As for `C=C(C)C(=O)OCC(C)C` [2-methylpropyl 2-methylprop-2-enoate], the figure is 49.00 °C; as for `CC(C)CON=O` [2-methylpropyl nitrite], -23.00 °C; as for `O=[N+]([O-])c1ccccc1O` [2-nitrophenol], 108.00 °C.
On to `CC(C)[N+](=O)[O-]` [2-nitropropane], for which the flash point is 24.00 °C.
To `O=C(O)Cc1ccccc1` [2-phenylacetic acid] belongs 132.00 °C.
Consider `Oc1ccccc1-c1ccccc1` [2-phenylphenol], for which the flash point was 124.00 °C.
As for `CC(C)OCCO` [2-propan-2-yloxyethanol], the figure is 33.00 °C; as for `CC(C)OC(C)C` [2-propan-2-yloxypropane], -28.00 °C.
As for `CC(C)c1ccccc1O` [2-propan-2-ylphenol], the figure is 104.00 °C; as for `CCCOCCO` [2-propoxyethanol], 49.00 °C.
As for `CCCC(CCC)C(=O)O` [2-propylpentanoic acid], the figure is 111.00 °C; as for `OCCS` [2-sulfanylethanol], 74.00 °C.
Consider `CC(C)(C)c1cc(O)ccc1O` [2-tert-butylbenzene-1,4-diol], for which the flash point is 171.00 °C.
To `CC(=O)C(C)(C)C` [3,3-dimethylbutan-2-one] belongs 5.00 °C.
As for `Nc1ccc(Cl)c(Cl)c1` [3,4-dichloroaniline], the flash point was found to be 166.00 °C.
As for `O=C1CCCc2ccccc21` [3,4-dihydro-2H-naphthalen-1-one], the figure is 129.00 °C.
`O=C1CCc2ccccc2O1` [3,4-dihydrochromen-2-one] came in with a flash point of 130.00 °C.
Compound `CC1=CC(=O)CC(C)(C)C1` [3,5,5-trimethylcyclohex-2-en-1-one] returned a flash point of 84.00 °C.
`Cc1cc(C)cc(O)c1` [3,5-dimethylphenol] had a flash point of 80.00 °C.
`CC(C)=CCCC(C)CC=O` (stereo unspecified) [3,7-dimethyloct-6-enal] gave a flash point of 74.00 °C.
As for `C=CC(C)(CCC=C(C)C)OC(C)=O` (stereo unspecified) [3,7-dimethylocta-1,6-dien-3-yl acetate], the figure is 94.00 °C; as for `N#CCCNCCC#N` [3-(2-cyanoethylamino)propanenitrile], 110.00 °C; as for `CCC1CCC(CCC(=O)O)C1` (stereo unspecified) [3-(3-ethylcyclopentyl)propanoic acid], 101.00 °C.
The compound `CC1(C)CC(N)CC(C)(CN)C1` (stereo unspecified) [3-(aminomethyl)-3,5,5-trimethylcyclohexan-1-amine] displayed a flash point of 110.00 °C.
To `CN(C)CCC#N` [3-(dimethylamino)propanenitrile] belongs 64.00 °C.
Take `C1CC2OC2CC1C1CO1` (stereo unspecified) [3-(oxiran-2-yl)-7-oxabicyclo[4.1.0]heptane]: the flash point was found to be 110.00 °C.
Turning to `Nc1cccc(C(F)(F)F)c1` [3-(trifluoromethyl)aniline], the flash point was 85.00 °C.
Turning to `CN1CCC[C@H]1c1cccnc1` [3-[(2S)-1-methylpyrrolidin-2-yl]pyridine], the flash point is 95.00 °C.
As for `NCCCO` [3-aminopropan-1-ol], the figure is 79.00 °C; as for `C=CCBr` [3-bromoprop-1-ene], -2.00 °C.
As to `C#CCBr` [3-bromoprop-1-yne], the flash point came out at 10.00 °C.
In turn, `Cc1ccc(N)cc1Cl` [3-chloro-4-methylaniline] returned a flash point of 100.00 °C.
The compound `Nc1cccc(Cl)c1` [3-chloroaniline] registered a flash point of 124.00 °C.
For `C=CCCl` [3-chloroprop-1-ene], the flash point is -32.00 °C.
To `N#CCCCl` [3-chloropropanenitrile] belongs 76.00 °C; to `CCOCCCO` [3-ethoxypropan-1-ol], 54.00 °C; to `CC(=O)C(C)O` (stereo unspecified) [3-hydroxybutan-2-one], 41.00 °C.
Regarding `CC(O)CC=O` (stereo unspecified) [3-hydroxybutanal], the flash point came to 66.00 °C.
As for `C=CC(=O)OCCCO` [3-hydroxypropyl prop-2-enoate], the figure is 97.00 °C; as for `C=CCN=C=S` [3-isothiocyanatoprop-1-ene], 46.00 °C; as for `CCC=CCC1=C(C)CCC1=O` [3-methyl-2-pent-2-enylcyclopent-2-en-1-one], 107.00 °C.
To `Cc1cccc(N)c1` [3-methylaniline] belongs 86.00 °C.
To `CSCCC=O` [3-methylsulfanylpropanal] belongs 61.00 °C; to `CC(=O)CC(=O)Nc1ccccc1` [3-oxo-N-phenylbutanamide], 163.00 °C; to `S=c1[nH]c2ccccc2s1` [3H-1,3-benzothiazole-2-thione], 200.00 °C.
Turning to `O=C1OC(=O)C2CC=CCC12` (stereo unspecified) [3a,4,7,7a-tetrahydro-2-benzofuran-1,3-dione], the flash point was 157.00 °C.
In turn, `O=C1OC(=O)c2c(Cl)c(Cl)c(Cl)c(Cl)c21` [4,5,6,7-tetrachloro-2-benzofuran-1,3-dione] came in with a flash point of 362.00 °C.
For `CC(=O)C=CC1C(C)=CCCC1(C)C` (stereo unspecified) [4-(2,6,6-trimethylcyclohex-2-en-1-yl)but-3-en-2-one], the flash point came to 118.00 °C.
To `CC1(N)CCC(C(C)(C)N)CC1` (stereo unspecified) [4-(2-aminopropan-2-yl)-1-methylcyclohexan-1-amine] belongs 93.00 °C.
As for `CCC(C)(C)c1ccc(O)cc1` [4-(2-methylbutan-2-yl)phenol], the figure is 111.00 °C; as for `Cc1cc(-c2ccc(N)c(C)c2)ccc1N` [4-(4-amino-3-methylphenyl)-2-methylaniline], 244.00 °C.
`C1CN(SSN2CCOCC2)CCO1` [4-(morpholin-4-yldisulfanyl)morpholine] showed a flash point of 121.00 °C.
`CN(C)c1ccc(N)cc1` [4-N,4-N-dimethylbenzene-1,4-diamine] returned a flash point of 91.00 °C.
To `CC(C)CC(C)Nc1ccc(Nc2ccccc2)cc1` (stereo unspecified) [4-N-(4-methylpentan-2-yl)-1-N-phenylbenzene-1,4-diamine] belongs 204.00 °C; to `Nc1ccc(Nc2ccccc2)cc1` [4-N-phenylbenzene-1,4-diamine], 193.00 °C; to `N=C(N)c1ccc(OCCCCCOc2ccc(C(=N)N)cc2)cc1` [4-[5-(4-carbamimidoylphenoxy)pentoxy]benzenecarboximidamide], 103.00 °C.
`Nc1ccc(Cc2ccc(N)c(Cl)c2)cc1Cl` [4-[(4-amino-3-chlorophenyl)methyl]-2-chloroaniline] came in with a flash point of 113.00 °C.
As for `CC/C(=C(/CC)c1ccc(O)cc1)c1ccc(O)cc1` [4-[(E)-4-(4-hydroxyphenyl)hex-3-en-3-yl]phenol], the figure is 104.00 °C.
Regarding `CN(C)c1ccc(Cc2ccc(N(C)C)cc2)cc1` [4-[[4-(dimethylamino)phenyl]methyl]-N,N-dimethylaniline], the flash point was found to be 211.00 °C.
`Cc1cc(Cl)ccc1N` [4-chloro-2-methylaniline]: the flash point was 160.00 °C.
The compound `Cc1cc(O)ccc1Cl` [4-chloro-3-methylphenol] displayed a flash point of 110.00 °C.
With `Nc1ccc(Cl)cc1` [4-chloroaniline], the flash point is 113.00 °C.
As for `C=CC1CC=CCC1` (stereo unspecified) [4-ethenylcyclohexene], the figure is 16.00 °C; as for `CCN1CCOCC1` [4-ethylmorpholine], 28.00 °C; as for `COc1cc(C=O)ccc1O` [4-hydroxy-3-methoxybenzaldehyde], 153.00 °C.
As for `COc1ccc(O)cc1` [4-methoxyphenol], the figure is 132.00 °C; as for `CC1COC(=O)O1` (stereo unspecified) [4-methyl-1,3-dioxolan-2-one], 116.00 °C.
As for `Cc1ccc(N)c([N+](=O)[O-])c1` [4-methyl-2-nitroaniline], the figure is 157.00 °C; as for `Cc1ccc(N)cc1[N+](=O)[O-]` [4-methyl-3-nitroaniline], 157.00 °C.
Consider `Cc1ccc(N)cc1` [4-methylaniline], for which the flash point stood at 87.00 °C.
`Cc1ccc(C#N)cc1` [4-methylbenzonitrile] yielded a flash point of 85.00 °C.
To `CC1CCC(O)CC1` (stereo unspecified) [4-methylcyclohexan-1-ol] belongs 70.00 °C; to `C=C1CC(=O)O1` [4-methylideneoxetan-2-one], 34.00 °C; to `CC(=O)C=C(C)C` [4-methylpent-3-en-2-one], 23.00 °C.
To `C=CC=C(C)C` [4-methylpenta-1,3-diene] belongs -34.00 °C.
`CC(C)CC(C)O` (stereo unspecified) [4-methylpentan-2-ol]: the flash point was determined as 41.00 °C.

These data come from a flash point compilation (Sun et al. 2020).
